Results: patent US20260285850A1, “SUBSTITUTED OXAZOLIDINONES AND IMIDAZOLINONES AS HERBICIDES” (FMC CORPORATION, priority 2023, published 2026)

Columns and labels:
Type in all cases: in vivo
kochia (Bassia scoparia) [1] = test: Test A postemergence application, visual injury rating 0-100; conditions: 10 days; for Kochia plant response rating (0-100): 31 g ai/ha, postemergence, 0 = no effect, 100 = complete control; for Kochia plant response rating (0 to 100 scale): Postemergence, 125 g ai/ha, 0 is no effect, 100 is complete control
Source text: (§1) Seeds of plant species selected from barnyardgrass (Echinochloa crus-galli), blackgrass (Alopecurus myosuroides), corn (Zea mays), foxtail, giant (giant foxtail, Setaria faberi), green foxtail (Setaria viridis), goosegrass (Eleusine indica), kochia (Bassia scoparia), oat, wild (wild oat, Avena fatua), palmer (palmer amaranth, palmer pigweed, Amaranthus palmeri), ragweed (common ragweed, Ambrosia artemisiifolia), ryegrass, Italian (italian ryegrass, Lolium multiflorum), soybean (Glycine max) and wheat (Triticum aestivum) were planted into a blend of loam soil and sand and treated preemergence with a directed soil spray using test chemicals formulated in a non-phytotoxic solvent mixture which included a surfactant.
(§2) At the same time, plants selected from these crops and weed species and also galium (catchweed bedstraw, Galium aparine) and horseweed (Erigeron canadensis) were planted in pots containing the same blend of loam soil and sand and treated with postemergence applications of test chemicals formulated in the same manner. Plants ranged in height from 2 to 10 cm and were in the one- to two-leaf stage for the postemergence treatment. Treated plants and untreated controls were maintained in a greenhouse for 10 days, after which time all treated plants were compared to untreated controls and visually evaluated for injury. Plant response ratings, summarized in Table A, are based on a 0 to 100 scale where 0 is no effect and 100 is complete control. A dash (-) response means no test result.

[2] = system: barnyardgrass (Echinochloa crus-galli); test: as above; conditions: 10 days; for Barnyardgrass plant response rating (0-100): 31 g ai/ha, postemergence, 0 = no effect, 100 = complete control; for Barnyardgrass plant response rating (0 to 100 scale): Postemergence, 125 g ai/ha, 0 is no effect, 100 is complete control
Source text: as §1, §2

[3] = system: ryegrass, Italian (italian ryegrass, Lolium multiflorum); test: as above; conditions: 10 days; for Ryegrass, Italian plant response rating (0-100): 31 g ai/ha, postemergence, 0 = no effect, 100 = complete control; for Ryegrass, Italian plant response rating (0 to 100 scale): Postemergence, 125 g ai/ha, 0 is no effect, 100 is complete control
Source text: as §1, §2

[4] = system: ragweed (common ragweed, Ambrosia artemisiifolia); test: as above; conditions: 10 days; for Ragweed plant response rating (0-100): 31 g ai/ha, postemergence, 0 = no effect, 100 = complete control; for Ragweed plant response rating (0 to 100 scale): Postemergence, 125 g ai/ha, 0 is no effect, 100 is complete control
Source text: as §1, §2

corn (Zea mays) [5] = test: as above; conditions: 10 days; for Corn plant response rating (0-100): 31 g ai/ha, postemergence, 0 = no effect, 100 = complete control; for Corn plant response rating (0 to 100 scale): Postemergence, 125 g ai/ha, 0 is no effect, 100 is complete control
Source text: as §1, §2

[6] = system: horseweed (Erigeron canadensis); test: as above; conditions: 10 days; for Horseweed plant response rating (0-100): 31 g ai/ha, postemergence, 0 = no effect, 100 = complete control; for Horseweed plant response rating (0 to 100 scale): Postemergence, 125 g ai/ha, 0 is no effect, 100 is complete control
Source text: as §1, §2

[7] = system: green foxtail (Setaria viridis); test: as above; conditions: 10 days; for Foxtail, Green plant response rating (0-100): 31 g ai/ha, postemergence, 0 = no effect, 100 = complete control; for Foxtail, Green plant response rating (0 to 100 scale): Postemergence, 125 g ai/ha, 0 is no effect, 100 is complete control
Source text: as §1, §2

[8] = system: blackgrass (Alopecurus myosuroides); test: as above; conditions: 10 days; for Blackgrass plant response rating (0-100): 31 g ai/ha, postemergence, 0 = no effect, 100 = complete control; for Blackgrass plant response rating (0 to 100 scale): Postemergence, 125 g ai/ha, 0 is no effect, 100 is complete control
Source text: as §1, §2

[9] = system: wheat (Triticum aestivum); test: as above; conditions: 10 days; for Wheat plant response rating (0-100): 31 g ai/ha, postemergence, 0 = no effect, 100 = complete control; for Wheat plant response rating (0 to 100 scale): Postemergence, 125 g ai/ha, 0 is no effect, 100 is complete control
Source text: as §1, §2

soybean (Glycine max) [10] = test: as above; conditions: 10 days; for Soybean plant response rating (0-100): 31 g ai/ha, postemergence, 0 = no effect, 100 = complete control; for Soybean plant response rating (0 to 100 scale): Postemergence, 125 g ai/ha, 0 is no effect, 100 is complete control
Source text: as §1, §2

[11] = system: palmer (palmer amaranth, palmer pigweed, Amaranthus palmeri); test: as above; conditions: 10 days; for Amaranth, Palmer plant response rating (0-100): 31 g ai/ha, postemergence, 0 = no effect, 100 = complete control; for Amaranth, Palmer / Pigweed, Palmer plant response rating (0 to 100 scale): Postemergence, 125 g ai/ha, 0 is no effect, 100 is complete control
Source text: as §1, §2

[12] = system: oat, wild (wild oat, Avena fatua); test: as above; conditions: 10 days; for Oat, Wild plant response rating (0-100): 31 g ai/ha, postemergence, 0 = no effect, 100 = complete control; for Oat, Wild plant response rating (0 to 100 scale): Postemergence, 125 g ai/ha, 0 is no effect, 100 is complete control
Source text: as §1, §2

kochia (Bassia scoparia) [13] = test: Test A preemergence soil spray, visual injury rating 0-100; conditions: 10 days, 0 = no effect, 100 = complete control; for Kochia plant response rating (0-100): 31 g ai/ha; for Kochia plant response rating (0 to 100 scale): 125 g ai/ha
Source text: as §1, §2

[14] = system: barnyardgrass (Echinochloa crus-galli); test: as above; conditions: 10 days, 0 = no effect, 100 = complete control; for Barnyardgrass plant response rating (0-100): 31 g ai/ha; for Barnyardgrass plant response rating (0 to 100 scale): 125 g ai/ha
Source text: as §1, §2

[15] = system: ryegrass, Italian (italian ryegrass, Lolium multiflorum); test: as above; conditions: 10 days, 0 = no effect, 100 = complete control; for Ryegrass, Italian plant response rating (0-100): 31 g ai/ha; for Ryegrass, Italian plant response rating (0 to 100 scale): 125 g ai/ha
Source text: as §1, §2

[16] = system: ragweed (common ragweed, Ambrosia artemisiifolia); test: as above; conditions: 10 days, 0 = no effect, 100 = complete control; for Ragweed plant response rating (0-100): 31 g ai/ha; for Ragweed plant response rating (0 to 100 scale): 125 g ai/ha
Source text: as §1, §2

corn (Zea mays) [17] = test: as above; conditions: 10 days, 0 = no effect, 100 = complete control; for Corn plant response rating (0-100): 31 g ai/ha; for Corn plant response rating (0 to 100 scale): 125 g ai/ha
Source text: as §1, §2

[18] = system: green foxtail (Setaria viridis); test: as above; conditions: 10 days, 0 = no effect, 100 = complete control; for Foxtail, Green plant response rating (0-100): 31 g ai/ha; for Foxtail, Green plant response rating (0 to 100 scale): 125 g ai/ha
Source text: as §1, §2

[19] = system: blackgrass (Alopecurus myosuroides); test: as above; conditions: 10 days, 0 = no effect, 100 = complete control; for Blackgrass plant response rating (0-100): 31 g ai/ha; for Blackgrass plant response rating (0 to 100 scale): 125 g ai/ha
Source text: as §1, §2

[20] = system: wheat (Triticum aestivum); test: as above; conditions: 10 days, 0 = no effect, 100 = complete control; for Wheat plant response rating (0-100): 31 g ai/ha; for Wheat plant response rating (0 to 100 scale): 125 g ai/ha
Source text: as §1, §2

soybean (Glycine max) [21] = test: as above; conditions: 10 days, 0 = no effect, 100 = complete control; for Soybean plant response rating (0-100): 31 g ai/ha; for Soybean plant response rating (0 to 100 scale): 125 g ai/ha
Source text: as §1, §2

[22] = system: palmer (palmer amaranth, palmer pigweed, Amaranthus palmeri); test: as above; conditions: 10 days, 0 = no effect, 100 = complete control; for Amaranth, Palmer plant response rating (0-100): 31 g ai/ha; for Amaranth, Palmer plant response rating (0 to 100 scale): 125 g ai/ha
Source text: as §1, §2

[23] = system: oat, wild (wild oat, Avena fatua); test: as above; conditions: 10 days, 0 = no effect, 100 = complete control; for Oat, Wild plant response rating (0-100): 31 g ai/ha; for Oat, Wild plant response rating (0 to 100 scale): 125 g ai/ha
Source text: as §1, §2

## CONC(=O)C1CC(NC(=O)C2(C)CN(c3cc(F)cc(F)c3)C(=O)O2)CO1 (centres unmarked) [Compound 40]
Kochia (Bassia scoparia) [1]
  Kochia plant response rating (0-100): 0
  Kochia plant response rating (0 to 100 scale): 70
[2]
  Barnyardgrass plant response rating (0-100): 10
  Barnyardgrass plant response rating (0 to 100 scale): 100
[3]
  Ryegrass, Italian plant response rating (0-100): 20
  Ryegrass, Italian plant response rating (0 to 100 scale): 60
[4]
  Ragweed plant response rating (0-100): 0
  Ragweed plant response rating (0 to 100 scale): 20
Corn (Zea mays) [5]
  Corn plant response rating (0-100): 20
  Corn plant response rating (0 to 100 scale): 100
[6]
  Horseweed plant response rating (0-100): 30
  Horseweed plant response rating (0 to 100 scale): 0
[7]
  Foxtail, Green plant response rating (0-100): 0
  Foxtail, Green plant response rating (0 to 100 scale): 90
[8]
  Blackgrass plant response rating (0-100): 100
  Blackgrass plant response rating (0 to 100 scale): 100
[9]
  Wheat plant response rating (0-100): 70
  Wheat plant response rating (0 to 100 scale): 80
Soybean (Glycine max) [10]
  Soybean plant response rating (0-100): 0
  Soybean plant response rating (0 to 100 scale): 60
[11]
  Amaranth, Palmer plant response rating (0-100): 0
  Amaranth, Palmer / Pigweed, Palmer plant response rating (0 to 100 scale): 30
[12]
  Oat, Wild plant response rating (0-100): 90
  Oat, Wild plant response rating (0 to 100 scale): 90
Kochia (Bassia scoparia) [13]
  Kochia plant response rating (0-100): 0
  Kochia plant response rating (0 to 100 scale): 0
[14]
  Barnyardgrass plant response rating (0-100): 0
  Barnyardgrass plant response rating (0 to 100 scale): 30
[15]
  Ryegrass, Italian plant response rating (0-100): 20
  Ryegrass, Italian plant response rating (0 to 100 scale): 90
[16]
  Ragweed plant response rating (0-100): 0
  Ragweed plant response rating (0 to 100 scale): 0
Corn (Zea mays) [17]
  Corn plant response rating (0-100): 0
  Corn plant response rating (0 to 100 scale): 0
[18]
  Foxtail, Green plant response rating (0-100): 0
  Foxtail, Green plant response rating (0 to 100 scale): 20
[19]
  Blackgrass plant response rating (0-100): 50
  Blackgrass plant response rating (0 to 100 scale): 80
[20]
  Wheat plant response rating (0-100): 50
  Wheat plant response rating (0 to 100 scale): 90
Soybean (Glycine max) [21]
  Soybean plant response rating (0-100): 0
  Soybean plant response rating (0 to 100 scale): 10
[22]
  Amaranth, Palmer plant response rating (0-100): 0
  Amaranth, Palmer plant response rating (0 to 100 scale): 0
[23]
  Oat, Wild plant response rating (0-100): 50
  Oat, Wild plant response rating (0 to 100 scale): 90

## CONC(=O)C1CC(NC(=O)C2(C)CN(c3cc(F)cc(F)c3)C(=O)O2)CO1 (centres unmarked) [Compound 41]
Kochia (Bassia scoparia) [1]
  Kochia plant response rating (0-100): 0
  Kochia plant response rating (0 to 100 scale): 0
[2]
  Barnyardgrass plant response rating (0-100): 0
  Barnyardgrass plant response rating (0 to 100 scale): 30
[3]
  Ryegrass, Italian plant response rating (0-100): 0
  Ryegrass, Italian plant response rating (0 to 100 scale): 50
[4]
  Ragweed plant response rating (0-100): 0
  Ragweed plant response rating (0 to 100 scale): 0
Corn (Zea mays) [5]
  Corn plant response rating (0-100): 0
  Corn plant response rating (0 to 100 scale): 0
[6]
  Horseweed plant response rating (0-100): 0
  Horseweed plant response rating (0 to 100 scale): 0
[7]
  Foxtail, Green plant response rating (0-100): 20
  Foxtail, Green plant response rating (0 to 100 scale): 30
[8]
  Blackgrass plant response rating (0-100): 0
  Blackgrass plant response rating (0 to 100 scale): 90
[9]
  Wheat plant response rating (0-100): 20
  Wheat plant response rating (0 to 100 scale): 80
Soybean (Glycine max) [10]
  Soybean plant response rating (0-100): 0
  Soybean plant response rating (0 to 100 scale): 0
[11]
  Amaranth, Palmer plant response rating (0-100): 0
  Amaranth, Palmer / Pigweed, Palmer plant response rating (0 to 100 scale): 0
[12]
  Oat, Wild plant response rating (0-100): 10
  Oat, Wild plant response rating (0 to 100 scale): 40
Kochia (Bassia scoparia) [13]
  Kochia plant response rating (0-100): 0
  Kochia plant response rating (0 to 100 scale): 0
[14]
  Barnyardgrass plant response rating (0-100): 0
  Barnyardgrass plant response rating (0 to 100 scale): 0
[15]
  Ryegrass, Italian plant response rating (0-100): 0
  Ryegrass, Italian plant response rating (0 to 100 scale): 0
[16]
  Ragweed plant response rating (0-100): 0
  Ragweed plant response rating (0 to 100 scale): 0
Corn (Zea mays) [17]
  Corn plant response rating (0-100): 0
  Corn plant response rating (0 to 100 scale): 0
[18]
  Foxtail, Green plant response rating (0-100): 0
  Foxtail, Green plant response rating (0 to 100 scale): 0
[19]
  Blackgrass plant response rating (0-100): 0
  Blackgrass plant response rating (0 to 100 scale): 0
[20]
  Wheat plant response rating (0-100): 0
  Wheat plant response rating (0 to 100 scale): 0
Soybean (Glycine max) [21]
  Soybean plant response rating (0-100): 0
  Soybean plant response rating (0 to 100 scale): 0
[22]
  Amaranth, Palmer plant response rating (0-100): 0
  Amaranth, Palmer plant response rating (0 to 100 scale): 0
[23]
  Oat, Wild plant response rating (0-100): 0
  Oat, Wild plant response rating (0 to 100 scale): 0
